Experimental data published in patent US20250154525A1, “PLANT VIRUS MOVEMENT PROTEINS AND METHODS OF USING SAME” (Molecular Transfer, Inc., priority 2016, published 2025).

Key:
HeLa Cells [1] = experiment: GFP plasmid transfection with DOTMA/DOPE plus surface ligand peptide, fluorescent plate reader (Example 1); type: cell-based; settings: DOTMA/DOPE + peptide linked to R12 or K16; EF1Alpha eGFP plasmid; 42 hours
Description: (§1) Cells were plated to so that on the day of transfection the cells were 70% confluent in 96 well tissue culture plates. A DOMTA/DOPE Lipid solution (1:1 molar ratio) at 2 mg/mL in water were mixed with an equal volume cell surface ligand containing adhesion peptide, the plant virus movement protein, or peptide derived therefrom, that had the nucleic acid binding moiety RRRRRRRRRRRR (SEQ ID NO:109) or KKKKKKKKKKKKKKKK (SEQ ID NO: 102) covalently linked to the N-terminus, or C-terminus of each peptide during peptide synthesis. Peptides were at 2 mg/mL in water. The DOTMA/DOPE and the solution containing the cell surface ligand containing adhesion peptide, the plant virus movement protein, or peptide derived therefrom, surface ligand peptide the was diluted 1 to 1 (v/v) in water. DOMTA/DOPE/PEPTIDE solutions were added to 0.1 mL of a plasmid DNA solution (EF1Alpha eGFP plasmid) at 10 μg/mL in OptiMEM.
(§2) All solutions were at room temperature. A volume of 0.2 mL of a 10 μg/mL solution of DNA was aliquoted into each well of a non-tissue cultured treated plate. 1-12 μL of transfection reagents were added to DNA solutions respectively. The transfection reagent and DNA solution was mixed by pipetting up and down twice. Transfection complexes were formed for 10 minutes. After 10 minutes, 0.01 or 0.02 mL of the transfection complex was added to cells. HuVEC, HeLa, human adult keratinocytes, human primary adult fibroblast, and A549 cells all respectively received 0.01 mL of the transfection complex. Human skeletal muscle cells, mouse C2C12 cells, and Jurkat, cells received 0.02 mL of the transfection complex. Cells were incubated for 42 hours at 37° C. at 5% CO2. Plates were read on a fluorescent plate reader. Cells were also examined visually under a microscope to assess the extent of transfection (in terms of the percent of cells transfected) with a fluorescent microscope. Other modes of analysis, for example quantification with B-galactocidase or luciferase reports plasmids can also be used.
(§3) Surface ligand that caused increase expression of GFP over the lipid DOTMA with no surface ligand were considered to enhance transfection or had higher % cells transfected were considered to enhance transfection. Peptides that gave greater than 2-fold enhancement are noted in bold and could be further optimized by adding different transfection enhancers or could be used with different cationic lipids or polymers.
(§4) Tables 2-7, below, provide the results of the transfection enhancements with the various cell types, while Table 8 lists the peptides that were determined by visual inspection to enhance the transfection of the denoted cell lines over the lipid DOTMA.

HuVec Cells = experiment: as above; type: cell-based; settings: DOTMA/DOPE + peptide linked to R12 or K16; EF1Alpha eGFP plasmid; 42 hours
Description: as §1, §2, §3, §4

Human Fibroblast Cells = experiment: as above; type: cell-based; settings: DOTMA/DOPE + peptide linked to R12 or K16; EF1Alpha eGFP plasmid; 42 hours
Description: as §1, §2, §3, §4

Jurkat Cells = experiment: as above; type: cell-based; settings: DOTMA/DOPE + peptide linked to R12 or K16; EF1Alpha eGFP plasmid; 42 hours
Description: as §1, §2, §3, §4

NL-1 iPS Cells = experiment: as above; type: cell-based; settings: DOTMA/DOPE + peptide linked to R12 or K16; EF1Alpha eGFP plasmid; 42 hours
Description: as §1, §2, §3, §4

C2C12 Cells = experiment: as above; type: cell-based, mouse; settings: DOTMA/DOPE + peptide linked to R12 or K16; EF1Alpha eGFP plasmid; 42 hours
Description: as §1, §2, §3, §4

HeLa Cells [2] = experiment: GFP transfection with DOTMA/SEQ ID NO: 72 (fusogenic peptide)/peptide compared with Lipofectamine 2000; type: cell-based
Description: as §1, §2
The fusogenic peptide was added to the DOMTA/peptide formulation to achieve a final concentration of 0.1 mg/mL to see if transfection reagents were further enhanced by the addition of a fusogenic peptide and could provide higher transfection efficiency into HeLa cells and expression than the commercially available Lipofectamine 2000.

some examined cell types = experiment: Summary of Example 1: transfection expression and % cells transfected over the no peptide control; type: cell-based; settings: on some examined cell types
Description: as §1, §2, §3

[3] = 0.1 μL of DOTMA/SEQ ID NO: 72/Peptide in well of a 96 well plate
[4] = 0.2 μL of DOTMA/SEQ ID NO: 72/Peptide in well of a 96 well plate
[5] = 0.3 μL of DOTMA/SEQ ID NO: 72/Peptide in well of a 96 well plate
[6] = 0.4 μL of DOTMA/SEQ ID NO: 72/Peptide in well of a 96 well plate

| Substance | Relative Fluorescence of Transfection of HeLa Cells (RF) (HeLa Cells [1]) | Relative Fluorescence of Transfection of HuVec Cells (RF) (HuVec Cells) | Relative Fluorescence of Transfection of Human Fibroblast Cells (RF) (Human Fibroblast Cells) | Relative Fluorescence of Transfection of Jurkat Cells (RF) (Jurkat Cells) | Relative Fluorescence of Transfection of NL-1 iPS Cells (RF) (NL-1 iPS Cells) | Relative Fluorescence of Transfection of C2C12 Cells (RF) (C2C12 Cells) | Relative Fluorescence DOTMA/SEQ ID NO: 72/Peptide, HeLa Cells (RF) (HeLa Cells [2]; [3]) | Relative Fluorescence DOTMA/SEQ ID NO: 72/Peptide, HeLa Cells (RF) (HeLa Cells [2]; [4]) | Relative Fluorescence DOTMA/SEQ ID NO: 72/Peptide, HeLa Cells (RF) (HeLa Cells [2]; [5]) | Relative Fluorescence DOTMA/SEQ ID NO: 72/Peptide, HeLa Cells (RF) (HeLa Cells [2]; [6]) | transfection expression and % cells transfected over the no peptide control (some examined cell types) |
| --- | --- | --- | --- | --- | --- | --- | --- | --- | --- | --- | --- |
| 381 (TAGSCL) [compound 381] | 22652 | 17542 | 9953 | 10806 | 9644 | 8834 | 34187 | 37463 | 27007 | 20088 | increased transfection expression and the % cells transfected |
| 336 (GEFYFDLRLKGDK) [compound 336] | 25262 | 5366 | 10449 | 4813 | 14875 | 9647 | 14442 | 16702 | 13434 | 11334 | increased transfection expression and the % cells transfected |
| 328 (NWRHISYITRFG) [compound 328] | 32528 | 3614 | 5641 | 4770 | 8611 | 5507 | 11037 | 12229 | 10801 | 10951 | increased transfection expression and the % cells transfected |
| 219 (RKRLQVQLSIRT) [compound 219] | 13721 | 6237 | 7389 | 10762 | 5770 | 1346 | 12135 | 13841 | 13531 | 11712 | increased transfection expression and the % cells transfected |
| 326 (RLVSYSGVLFFLK) [compound 326] | 18946 | 4932 | 3070 | 3018 | 9239 | 8553 | 6887 | 9487 | 10330 | 9227 | increased transfection expression and the % cells transfected |
| 323 (HQQDLGTAGSCLRKFSTMFLF) [compound 323] | 14067 | 12815 | 4826 | 2900 | 21694 | 7698 | 15537 | 16620 | 10839 | 9244 | increased transfection expression and the % cells transfected |
| 375 (LAGSCLPVFSTL) [compound 375] | 41076 | 5542 | 7305 | 4272 | 5196 | 5633 | 22457 | 30891 | 34887 | 29024 | increased transfection expression and the % cells transfected |
| 353 (KKQRFRHRNRKGYRSQ) [compound 353] | 29119 | 8772 | 8653 | 11107 | 9248 | 4291 | 36315 | 44772 | 36882 | 25802 | increased transfection expression and the % cells transfected |
| 341 (LRAHAVDVNG) [compound 341] | 4108 | 15906 | 2284 | 18042 | 20446 | 2141 | 6406 | 7469 | 8020 | 7546 | increased transfection expression and the % cells transfected |
| 355 (FRHRNRKGY) [compound 355] | 32628 | 14810 | 6821 | 8132 | 7910 | 1900 | 18362 | 27990 | 22367 | 18289 | increased transfection expression and the % cells transfected |
